Experimental findings from patent US8119641B2, “1H-furo[3,2-C]pyrazole compounds useful as kinase inhibitors” (Nerviano Medical Sciences S.R.L., priority 2006, dated 2012) are described below.

One assay addresses T1, Aurora-2 (Homo sapiens, UniProt O14965).
T1 sequence (O14965 1-403): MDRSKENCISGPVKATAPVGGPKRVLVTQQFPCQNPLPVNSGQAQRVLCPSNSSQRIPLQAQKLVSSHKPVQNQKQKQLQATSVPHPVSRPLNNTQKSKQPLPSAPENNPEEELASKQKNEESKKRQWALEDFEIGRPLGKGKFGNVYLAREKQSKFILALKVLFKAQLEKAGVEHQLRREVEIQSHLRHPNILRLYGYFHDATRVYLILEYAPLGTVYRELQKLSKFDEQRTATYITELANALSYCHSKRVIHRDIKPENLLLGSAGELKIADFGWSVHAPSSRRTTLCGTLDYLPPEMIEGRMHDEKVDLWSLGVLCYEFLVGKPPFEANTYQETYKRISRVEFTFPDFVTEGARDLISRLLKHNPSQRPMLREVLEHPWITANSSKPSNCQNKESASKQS
Briefly: Inhibition assay of Aurora-2 activity (SPA). In kind it is biochemical. The procedure: The inhibiting activity and the potency of selected compounds is determined through a method of assay based on the use of the SPA technology (Amersham Pharmacia Biotech).
The assay consists of the transfer of radioactivity labelled phosphate moiety by the kinase to a biotinylated substrate. The resulting 33P-labelled biotinylated product is allowed to bind to streptavidin-coated SPA beads (biotin capacity 130 pmol/mg), and light emitted was measured in a scintillation counter.
Inhibition Assay of Aurora-2 Activity
Kinase reaction: 8 μM biotinylated peptide (4 repeats of LRRWSLG), 10 μM ATP (0.5 uCi P^33γ-ATP), 7.5 ng Aurora 2, inhibitor in a final volume of 30 μl buffer (HEPES 50 mM pH 7.0, MgCl2 10 mM, 1 mM DTT, 0.2 mg/mL BSA, 3 μM orthovanadate) were added to each well of a 96 U bottom well plate. After 60 minutes at room temperature incubation, reaction was stopped and biotinylated peptide captured by adding 100 μl of bead suspension.
Stratification: 100 μl of CsCl 5 M were added to each well and let stand 4 hour before radioactivity was counted in the Top-Count instrument.
IC50 determination: inhibitors were tested at different concentrations ranging from 0.0015 to 10 μM. […]

Assay [1] deals with human colon cancer cell line HCT-116. Nature of the assay: In vitro cell proliferation assay. In kind it is cell-based. To be noted: HCT-116, 72 hours of treatment, read-out: Cell Antiproliferation IC50. On the procedure: The compounds of the invention were further tested, in vitro to assess the anti-proliferative effect onto cell cultures.
In Vitro Cell Proliferation Assay
The human colon cancer cell line HCT-116 was seeded at 5000 cells/cm^2 in 24 wells plate (Costar) using F12 medium (Gibco) supplemented with 10% FCS (EuroClone, Italy) 2 mM L-glutamine and 1% penicillin/streptomycin and maintained at 37° C., 5% CO2 and 96% relative humidity. The following day, plates were treated in duplicates with 5 ul of an appropriate dilution of compounds starting from a 10 mM stock in DMSO. Two untreated control wells were included in each plate. After 72 hours of treatment, medium was withdrawn and cells detached from each well using 0.5 mL of 0.05% (w/v) Trypsin, 0.02% (w/v) EDTA (Gibco) Samples were diluted with 9.5 mL of Isoton (Coulter) and counted using a Multisizer 3 cell counter (Beckman Coulter). Data were evaluated as percent of the control wells, % of CTR=(Treated−Blank)/(Control−Blank). IC50 values were calculated by LSW/Data Analysis using Microsoft Excel sigmoidal curve fitting.

Consider `CC(C)(NC(=O)c1cc2[nH]nc(NC(=O)c3ccccc3NC(=O)c3ccc[nH]3)c2o1)c1ccccc1` [(1), 3-{2-[(1H-Pyrrole-2-carbonyl)-amino]-benzoylamino}-1H-furo[3,2-c]pyrazole-5-carboxylic acid (1-methyl-1-phenyl-ethyl)-amide], for which the IC50 at Aurora-2 stood at 6 nM; in assay [1] it was 5 nM.
